Results reported in publication PMC6100043, “Development of Thiophene Compounds as Potent Chemotherapies for the Treatment of Cutaneous Leishmaniasis Caused by Leishmania major” (Molecules : A Journal of Synthetic Chemistry and Natural …, 2018).
Where two headings read alike, the source gives them in different places.

Columns and labels:
[1] = tested on: L. major-luc promastigotes; assay: Luciferase assay, viability of L. major-luc promastigotes; type: cell-based, Leishmania major; conditions: 72 h at 28 °C, 2 × 10^6 promastigotes per mL, luciferase activity
[2] = Mammalian cell cytotoxicity (alamarBlue for 5A; PI/Hoechst HCIA for 5D, 5E) in IPΦ; conditions: BALB/c, mouse, intraperitoneal mouse macrophages (IPΦ)
[3] = tested on: intraperitoneal mouse macrophages (IPΦ); assay: as above; conditions: for S.I. IPΦ (CC50 mammalian cells)/(EC50 in L. major-luc promastigotes): IPΦ vs L. major-luc promastigotes
[4] = Mammalian cell cytotoxicity (alamarBlue for 5A; PI/Hoechst HCIA for 5D, 5E) in LLC-MK2; conditions: rhesus monkey, LLC-MK2 kidney epithelial cells
[5] = tested on: monkey kidney cells (LLC-MK2); assay: as above; conditions: for S.I. LLC-MK2 (CC50 mammalian cells)/(EC50 in L. major-luc promastigotes): LLC-MK2 vs L. major-luc promastigotes
[6] = tested on: L. major intracellular amastigotes; assay: High-Content Imaging Assay, proliferation of intracellular amastigotes in infected IPΦ; type: cell-based, Leishmania major; conditions: for number of infected cells compared to control treated with 1% DMSO: 2.5 µM, infected IPΦ; for number of infected cells compared to control treated with 1% DMSO / inhibition at 0.625 µM: 48 h; for inhibition at 0.625 µM: Leishmania major, read-out: inhibition of the proliferation of intracellular amastigotes
L. major promastigotes = assay: Measurement of reactive oxygen species levels (H2DCFDA); type: cell-based, Leishmania major; conditions: 5D at EC50, 24 h incubation + 7 h reading (31 h), H2DCFDA 10 µM
[7] = parameters: method as in PMID 25365529, PMID 26230675; conditions: cited from earlier work
[8] = read-out: EC50 Leishmania major-luc promastigotes

| Molecule | EC50 ([1]; Leishmania major, 72 h) [µM] | CC50 at 48 h [2] [µM] | S.I. IPΦ (CC50 mammalian cells)/(EC50 in L. major-luc promastigotes) [3] | CC50 at 72 h [4] [µM] | further results |
| --- | --- | --- | --- | --- | --- |
| CCOC(=O)c1c(NC(=O)c2ccc(C(F)(F)F)cc2)sc2c1CC(C)(C)NC2(C)C [Compound 5A, Ethyl 5,5,7,7-tetramethyl-2-(4-(trifluoromethyl)benzamido)-4,5,6,7-tetrahydrothieno[2,3-c]pyridine-3-carboxylate] | ~0.34 | ~10.4 | 30.50 | 17.7 ± 1.12 | EC50 [1, 8]: ~0.341 µM; cytotoxicity for IPΦ ([3]; at 5 and 10 µM, in HCIA of infected IPΦ, 48 h): cytotoxic; S.I. LLC-MK2 (CC50 mammalian cells)/(EC50 in L. major-luc promastigotes) [5]: 52.85 |
| CCOC(=O)c1c(NC(=O)c2ccccc2C(F)(F)F)sc2c1CC(C)(C)NC2(C)C [Compound 5B, Ethyl-5,5,7,7-tetramethyl-2-(2-(trifluoromethyl)benzamido)-4,5,6,7-tetrahydrothieno[2,3-c]pyridine-3-carboxylate] | 5.98 ± 1.72 |  |  |  |  |
| CCOC(=O)c1c(NC(=O)c2cccc(C(F)(F)F)c2F)sc2c1CC(C)(C)NC2(C)C [Compound 5D, Ethyl-2-(2-fluoro-3-(trifluoromethyl)benzamido)-5,5,7,7-tetramethyl-4,5,6,7-tetrahydrothieno[2,3-c]-pyridine-3-carboxylate] |  | 27.9 ± 3.19 | 310 | > 80 | number of infected cells compared to control treated with 1% DMSO [6]: reduced number of infected cells; inhibition at 0.625 µM [6]: > 75%; decrease of the proliferation of the parasite (intracellular amastigotes) ([6]; infected murine macrophages, concentration not given): 80%; ROS levels, fold higher compared to vehicle control 1% DMSO (L. major promastigotes): 14.5 fold; selectivity compared with parent compound 5A ([3]; fold higher than 5A): 10 fold; toxicity against LLC-MK2 ([5]; at concentrations up to 80 µM, 72 h): did not display perceptible toxicity |
| CCOC(=O)c1c(NC(=O)c2ccc(F)c(C(F)(F)F)c2)sc2c1CC(C)(C)NC2(C)C [Compound 5E, Ethyl-2-(4-fluoro-3-(trifluoromethyl)benzamido)-5,5,7,7-tetramethyl-4,5,6,7-tetrahydrothieno[2,3-c]-pyridine-3-carboxylate] | 0.78 ± 0.11 | 16.6 ± 1.52 | 21.27 | 80 ± 4.45 | number of infected cells compared to control treated with 1% DMSO [6]: reduced number of infected cells; inhibition at 0.625 µM [6]: > 50%; S.I. LLC-MK2 (CC50 mammalian cells)/(EC50 in L. major-luc promastigotes) [5]: 102.56 |
| CC1(C)Cc2c(sc(NC(=O)c3cc(Cl)ccc3C(F)(F)F)c2C(=O)O)C(C)(C)N1 [Compound 5F, 2-(5-chloro-2-(trifluoromethyl)benzamido)-5,5,7,7-tetramethyl-4,5,6,7-tetrahydrothieno[2,3-c]pyridine-3-carboxylic acid] | > 12.5 |  |  |  |  |
| CC1(C)Cc2c(sc(NC(=O)c3ccccc3C(F)(F)F)c2C(=O)O)C(C)(C)N1 [Compound 5G, 5,5,7,7-tetramethyl-2-(2-(trifluoromethyl)benzamido)-4,5,6,7-tetrahydrothieno[2,3-c]pyridine-3-carboxylic acid] | > 12.5 |  |  |  |  |
| COC(=O)c1c(NC(=O)c2ccc(F)c(C(F)(F)F)c2)sc2c1CC(C)(C)NC2(C)C [Compound 5H, Methyl-2-(4-fluoro-3-(trifluoromethyl)benzamido)-5,5,7,7-tetramethyl-4,5,6,7-tetrahydrothieno[2,3-c]-pyridine3-carboxylate] | 3.05 ± 0.47 |  |  |  |  |
| COC(=O)c1c(NC(=O)c2ccccc2C(F)(F)F)sc2c1CC(C)(C)NC2(C)C [Compound 5I, Methyl-5,5,7,7-tetramethyl-2-(2-(trifluoromethyl)benzamido)-4,5,6,7-tetrahydrothieno[2,3-c]pyridine-3-carboxylate] | 5.5 ± 1.8 |  |  |  |  |
| CCCCCCCCCCCCCCCCOP(=O)([O-])OCC[N+](C)(C)C [Miltefosine, miltefosine] |  |  |  |  | half-life [7]: 150 h |
| Ethyl-5,5,7,7-tetramethyl-2-(2-(trifluoromethyl)benzamido)-4,5,6,7-tetrahydrothieno[2,3-c]pyridine-3-carboxylate [Compound 5C] |  |  |  |  | EC50 [1, 8]: 4.73 ± 0.69 µM |
